“And” between values parts separate entries of the source, which are not always exact repeats. Equal values may be shown once.
How the values were obtained:
[1] = tested on: S. minnesota SLH 157 (wild type, functional OM); assay: MIL-based whole-cell extraction (capture, wash, back-extraction, plating); parameters: species or system Salmonella enterica; key to Relative Affinity for MIL: +++++: higher losses during wash step are due to lower cellular affinity for the MIL; ++++: higher losses during wash step are due to lower cellular affinity for the MIL; +++: higher losses during wash step are due to lower cellular affinity for the MIL; ++: higher losses during wash step are due to lower cellular affinity for the MIL; +: higher losses during wash step are due to lower cellular affinity for the MIL
Procedure: (§1) A universal schematic for MIL-based cell extraction is depicted in FIG. 7B. A 1 mL volume of diluted cell suspension was added to a flat-bottomed 4-mL screw cap glass vial. Fifteen microliters of either the Ni(II) or Dy(III) MIL was added and dispersed into microdroplets by vortex agitation for 30 s. The aqueous phase was decanted following dispersive extraction, and the MIL was subjected to a brief wash step using 1 mL of nuclease-free water (Integrated DNA Technologies, Coralville, IA, USA) to ensure adequate removal of loosely or incidentally bound cells. After washing, release of viable cells from the MIL extraction phase was carried out using a “back-extraction” step accomplished through addition of 1 mL of an ionically-rich nutritive medium comprised of 20 g L^−1 tryptone and 10 g L^−1 NaCl, followed by a 120 s vortex step. After back-extraction, aliquots of the cell-enriched back-extraction medium were enumerated using the track dilution method using 100×100 mm square, gridded TSA, BSA, CA or VRBGA plates.
(§2) Following back-extraction, aliquots of the cell-enriched back-extraction medium were serially diluted in 0.1% peptone water and a 10 μL aliquot of each dilution was applied to a separate lane on square plates containing an appropriate agar medium. The plates were then tilted at an approximately 80° angle for 15 min to allow the droplets to travel toward the opposite end of the plate. The plates were incubated for 24 h at 37° C. (TSA, VRBGA), for 48 h at 37° C. (BSA) or for 24 h at 37° C. (CA). Colonies were counted and colony forming units (CFU) were determined. The enrichment factor (EF) for MIL-based extraction was calculated using Equation 1, where CMIL represents the concentration of bacteria in suspension following extraction using the MIL and CS is the initial concentration of bacteria in the sample.
(§3) To further evaluate the importance of the OM to serve as a surface to which the MIL can bind and as a protective layer from potentially deleterious activities of the Ni(II) MIL, capture and recovery of two physiological variants of S. minnesota was performed. The strains compared were S. minnesota SLH 157 (wild type, functional OM) and S. minnesota mR613 (OM mutant). […] Compared to the wild type, cells with a truncated OM are dramatically more susceptible to damage from antimicrobial agents or chemically harsh environments. To study the effect of the Ni(II) MIL exposure on the recovery of wild type and mutant strains of S. minnesota, a 1 mL aliquot of TSB was inoculated with 1×10^5 CFU mL^−1 of bacteria and spiked with 15 μL of the Ni(II) MIL. MIL-based extraction was performed and 10 μL aliquots of the back-extraction solution were enumerated using TSA and BSA plates. Average CFU counts were compared to a standard that was not exposed to the Ni(II) MIL. Extraction and recovery of S. typhimurium was also assessed. Enrichment factors were calculated.
(§4) Although all of the strains assessed were capable of being enriched by the MIL, some species were physically enriched to greater extents than others with extraction. In order to further examine the cause for this finding, the number of captured cells lost to the wash solution was investigated. The wash step is performed after the MIL enrichment step in order to remove any incidentally-adsorbed bacteria prior to back-extraction. It is hypothesized that the cells with lower enrichment factors have lower affinities for the MIL and are therefore lost in greater number to the wash solution than those having higher enrichment factors. […] The percent-loss during the wash step ranged from 47-79%. […] EF data from Table 4 for three overlapping Salmonella strains are superimposed to highlight trends in percent-loss, relative affinity and EF.

[2] = tested on: S. minnesota mR613 (OM mutant, deep rough); assay: as above; parameters: species or system Salmonella enterica; key to Relative Affinity for MIL: +++++: higher losses during wash step are due to lower cellular affinity for the MIL; ++++: higher losses during wash step are due to lower cellular affinity for the MIL; +++: higher losses during wash step are due to lower cellular affinity for the MIL; ++: higher losses during wash step are due to lower cellular affinity for the MIL; +: higher losses during wash step are due to lower cellular affinity for the MIL; details: for Percent-Loss: cells lost to wash solution
Procedure: as §1, §2, §3, §4

[3] = tested on: S. enterica subsp. arizonae; assay type: cell-based, Salmonella enterica; parameters: key to Relative Affinity for MIL: +++++: higher losses during wash step are due to lower cellular affinity for the MIL; ++++: higher losses during wash step are due to lower cellular affinity for the MIL; +++: higher losses during wash step are due to lower cellular affinity for the MIL; ++: higher losses during wash step are due to lower cellular affinity for the MIL; +: higher losses during wash step are due to lower cellular affinity for the MIL
Procedure: as §1, §2
(§5) In order to explore the broader utility of our approach, evaluation of additional cell types is needed. We began this extended evaluation of the Ni(II) MIL with seven representative DNA subgroups of Salmonella and eight strains of E. coli O157:H7. Briefly, a 1 mL aliquot of TSB was inoculated with 1×10^6 CFU mL^−1 of bacteria, and spiked with 15 μL of the Ni(II) MIL. MIL-based extraction was performed and 10 μL aliquots of the back-extraction solution were enumerated using TSA and BSA plates (Salmonella) or TSA plates (E. coli O157:H7). […] We later determined that VRBGA was a suitable common medium for this purpose and used this in our statistical analysis. Average CFU counts were compared to standards that were not exposed to the Ni(II) MIL. Enrichment factors were calculated for Salmonella on both non-selective (TSA) and selective agars (BSA) and for E. coli O157:H7 on non-selective agar (TSA). […] Note: As BSA is a Salmonella-specific agar E. coli O157:H7 was not plated to BSA in this example.
as §4

[4] = tested on: S. enterica subsp. diarizonae; assay type: cell-based, Salmonella enterica; parameters: key to Relative Affinity for MIL: +++++: higher losses during wash step are due to lower cellular affinity for the MIL; ++++: higher losses during wash step are due to lower cellular affinity for the MIL; +++: higher losses during wash step are due to lower cellular affinity for the MIL; ++: higher losses during wash step are due to lower cellular affinity for the MIL; +: higher losses during wash step are due to lower cellular affinity for the MIL
Procedure: as §1, §2, §5, §4

P. eucalypti 299R = assay: MIL-based whole-cell extraction; parameters: species or system Pantoea eucalypti; details: EF determined using Columbia Agar
Procedure: A universal schematic for MIL-based cell extraction is depicted in FIG. 7B. A 1 mL volume of diluted cell suspension was added to a flat-bottomed 4-mL screw cap glass vial. Fifteen microliters of either the Ni(II) or Dy(III) MIL was added and dispersed into microdroplets by vortex agitation for 30 s. The aqueous phase was decanted following dispersive extraction, and the MIL was subjected to a brief wash step using 1 mL of nuclease-free water (Integrated DNA Technologies, Coralville, IA, USA) to ensure adequate removal of loosely or incidentally bound cells. […]
Following back-extraction, aliquots of the cell-enriched back-extraction medium were serially diluted in 0.1% peptone water and a 10 μL aliquot of each dilution was applied to a separate lane on square plates containing an appropriate agar medium. […] Colonies were counted and colony forming units (CFU) were determined. The enrichment factor (EF) for MIL-based extraction was calculated using Equation 1, where CMIL represents the concentration of bacteria in suspension following extraction using the MIL and CS is the initial concentration of bacteria in the sample.

Density of MIL = assay type: physicochemical
[5] = 1×10^5 CFU mL^−1 in TSB, 15 μL MIL
[6] = ranked from percent-loss in wash step
[7] = 1×10^6 CFU mL^−1 in TSB, 15 μL MIL

CCCCCCCCCCCCCC[P+](CCCCCC)(CCCCCC)CCCCCC.O=C([CH-]C(=O)C(F)(F)F)C(F)(F)F.O=C([CH-]C(=O)C(F)(F)F)C(F)(F)F.O=C([CH-]C(=O)C(F)(F)F)C(F)(F)F.[Ni+2] [Ni(II) MIL, [P66614^+][Ni(hfacac)3^−]]
Enrichment Factor (BSA) [1, 5]: 11 | Enrichment Factor (TSA) [1, 5]: 17 | Percent-Loss ([1]; cells lost to wash solution): 59 ± 3% | Relative Affinity for MIL [1, 6]: +++ | Enrichment Factor (TSA) [2, 5]: 4 | Percent-Loss [2]: 69 ± 5% | Percent-Loss ([2]; listed as MIL): 79% | antimicrobial effect of capture process on deep rough mutant ([2]; post-capture growth behavior on TSA): not overtly antimicrobial | Relative Affinity for MIL [2, 6]: ++ | Relative Affinity for MIL [3]: + | Enrichment Factor (BSA) [3, 7]: 2 and 4 | Enrichment Factor (TSA) [3, 7]: 3 | Percent-Loss ([3]; cells lost to wash solution): 79 ± 1% | Relative Affinity for MIL [4]: +++++ | Enrichment Factor (BSA) [4, 7]: 11 | Enrichment Factor (TSA) [4, 7]: 7 | Percent-Loss ([4]; cells lost to wash solution: wash counts / (wash + back-extraction counts) × 100): 47 ± 7% | Enrichment Factor (P. eucalypti 299R): 169 | density (Density of MIL): ~1.3 g/mL

— patent publication US12416052B2, “Capturing, concentrating, and detecting microbes in a sample using magnetic ionic liquids and recombinase polymerase amplification” (priority 2019, dated 2025)
